Molecules are shown by their SMILES. Entries after “also recorded” stand apart in the source; their conditions may differ. A value given as a limit tells only on which side of the number the result lay.

The subject of one data set is rats. Nature of the data set: Social novelty discrimination (SND). Type of data set: in vivo, rat. The following applies: 10 mg/kg. The method, then:
The SND test compares the social investigation times of an adult rat with a familiar and a novel juvenile rat. Testing consisted of two consecutive juvenile presentations periods to an adult subject: period 1 (P1) and period 2 (P2). At the beginning of P1, one juvenile was placed into the adult home cage and the time spent by the adult investigating the juvenile (anogenital sniffing, licking, close pursuing and pawing) was recorded manually for 5 min. During P2, the same juvenile and a second, novel juvenile were placed in the cage together with the adult, and the times spent by the adult investigating each juvenile were measured independently for 3 min. A different pair of juvenile rats was presented to each adult tested. Manual scoring was conducted in a blinded manner. SND was deliberately impaired in control rats by the parametric manipulation applied, as there was 30 min delay between P1 and P2, and their SND was expected to be low. The influence of MP-III-022 (1, 2.5 or 10 mg/kg) on the thus induced impairment in SND was examined. There were five groups of rats which received one of the following treatments 20 min before P1: solvent, 1.5 mg/kg diazepam and 1, 2.5 and 10 mg/kg MP-III-022. The amount of time investigating familiar (Tf) and novel (Tn) juvenile during P2 was manually scored, and discrimination indexes (Tn−Tf/Tn+Tf) was calculated. Total exploration time during P1 and P2 was also manually recorded.

The next data set deals with HEK293. In words: Cytotoxicity assay (CellTiter-Glo), HEK293. Type of data set: cell-based, human. The following applies: 48 hours incubation. The method, then:
(§1) Human liver hepatocellular carcinoma (HEPG2) and human embryonic kidney 293 (HEK293) cell lines were purchased (ATCC) and cultured in 75 cm2 flasks (CellStar). Cells were grown in DMEM/High Glucose (Hyclone, #SH3024301) media to which non-essential amino acids (Hyclone, #SH30238.01), 10 mM HEPES (Hyclone, #SH302237.01), 5×106 units of penicillin and streptomycin (Hyclone, #SV30010), and 10% of heat inactivated fetal bovine serum (Gibco, #10082147) were added. Cells were harvested using 0.05% Trypsin (Hyclone, #SH3023601), washed with PBS, and dispensed into sterile white, optical bottom 384-well plates (NUNC, #142762). After three hours, small molecule solutions were transferred with a Tecan Freedom EVO liquid handling system equipped with a 100 nL pin tool (V&P Scientific). The controls (E)-10-(bromotriphenylphosphoranyl)decyl 4-(4-(tert-butyl)phenyl)-4-oxobut-2-enoate (400 μM in DMSO, positive control) and DMSO (negative control). The cells were incubated for 48 hours followed by the addition of CellTiter-Glo™, a luminescence-based cell viability assay (Promega, Madison, Wis.). All luminescence readings were performed on a Tecan Infinite M1000 plate reader. The assay was carried out in quadruplet with three independent runs. The data was normalized to the controls and analyzed by nonlinear regression (GraphPad Prism).
On the technique in general: Cellular ATP, detected with luciferase, serves as a proxy for viable cell number.

For another data set, the system named is HEPG2. Nature of the data set: Cytotoxicity assay (CellTiter-Glo), HEPG2. The following applies: 48 hours incubation. It counts as cell-based, human. On the procedure:
as §1

The conditions of data set [1]: Wistar rats, Stamenic et al. 2016, cited from earlier work.
In data set [2] the test system is Female Swiss Webster mice. In words: Rotarod sensorimotor / locomotor coordination. Type of data set: in vivo, mouse. The note with it: 40 mg/kg oral gavage; 15 rpm, 3 min; 10, 30, 60 min after dosing.
In a further data set the test system is 18 months-old mice. In words: Y-maze alternation task, old mice. Type of data set: in vivo, mouse. The note with it: 5 mg/kg i.p. 30 min before testing. The method, then: C57/B16 male mice males were ordered from Jackson Laboratories at 10 months-old and were kept in normal housing conditions (12 h light ON cycle starting at 7 am/water and food ad libitum) until they reached the age of 18 months. A younger cohort of 8 week old animals was used as controls for the experiment. Before testing animals were handled to reduce the anxiety-like response toward the experimenter. Normal aging induced-working memory deficits were assessed using the Y-maze test as described below.
Mice were first habituated to the Y-maze apparatus and distal cues during 2 consecutive days over a 10 min free exploration session (one session per day). The next day, animals performed a training session consisting in seven successive trials separated by a 30 s inter-trial interval (ITI); during this training session, mice were familiarized with the experimental procedure (opening and closing of the doors and confinement into the goal arms). […] Then, the door was opened and the mouse was allowed to enter freely one of the two goal arms; the chosen arm was closed and the choice was recorded. […]
The same general procedure used in the training session was implemented 24 h later, except that the ITI was lengthened to 90 s. […] The mean alternation rate was calculated and was expressed in percentage (number of alternation done by the animal/total number of alternation possible×100)±SEM. […]

With `C#Cc1ccc2c(c1)C(c1ccccc1F)=N[C@H](C)c1c(C(=O)NC)ncn1-2` [MP-III-022], the “discrimination index (social novelty discrimination)” value in the data set on rats (20 min before P1, one-sample t-test vs zero) is “significant differences from zero”. In the data set with rats (20 min before P1, paired t-test), the “time exploring the familiar and the novel juvenile rat during P2” value is “spent significantly more time in exploring the new rat”. The “HEK293 LD50” value with HEK293 was more than 100 µM. Besides, in the data set with HEPG2, the “HEPG2 LD50” value was more than 200 µM. Moreover, in data set [1] (i.p. single dose), the “terminal elimination half-life t1/2, brain” value is given as 70 min and the “terminal elimination half-life t1/2, plasma” value is recorded as 35 min. For the same molecule, in data set [1] (single i.p. dose), the “systemic and brain exposure” value is “excellent systemic and brain exposure”.
On to `C#Cc1ccc2c(c1)C(c1ccccc1F)=N[C@H](C)c1c(C(=O)NCC)ncn1-2` [GL-II-74, (R)—N-ethyl-8-ethynyl-6-(2-fluorophenyl)-4-methyl-4H-benzo[f]imidazo[1,5-a][1,4]diazepine-3-carboxamide], for which the “sensorimotor impairment on rotarod (time of fall)” value (shortened to “sensorimotor impairment on rotarod”) in data set [2] is “no sensorimotor impairment”.
In the case of `C#Cc1ccc2c(c1)C(c1ccccc1F)=N[C@H](C)c1c(C(=O)N3CCCC3)ncn1-2` [GL-II-76, (R)-(8-ethynyl-6-(2-fluorophenyl)-4-methyl-4H-benzo[f]imidazo[1,5-a][1,4]diazepin-3-yl)(pyrrolidin-1-yl)methanone], in data set [2], the “sensorimotor impairment on rotarod” value is “no sensorimotor impairment”. Further, in the data set with HEK293, the “HEK293 LD50” value was more than 100 µM. Also, in the data set with HEPG2, the “HEPG2 LD50” value is more than 400 µM.
Regarding `C#Cc1ccc2c(c1)C(c1ccccc1F)=N[C@H](C)c1c(C(=O)NC3CC3)ncn1-2` [GL-II-75, (R)—N-cyclopropyl-8-ethynyl-6-(2-fluorophenyl)-4-methyl-4H-benzo[f]imidazo[1,5-a][1,4]diazepine-3-carboxamide], the “effect on age-induced working memory impairment (percent alternation rate, Y-maze)” value with 18 months-old mice was “significant reversal of age-induced impairment in working memory; also recorded: significant pro-cognitive effect”.
For the molecule `C#Cc1ccc2c(c1)C(c1ccccc1F)=N[C@H](C)c1c(C(=O)N(C)C)ncn1-2` [GL-II-73, (R)-8-ethynyl-6-(2-fluorophenyl)-N,N,4-trimethyl-4H-benzo[f]imidazo[1,5-a][1,4]diazepine-3-carboxam], in the data set with 18 months-old mice, the “effect on age-induced working memory impairment (percent alternation rate, Y-maze)” value is recorded as “significant reversal of age-induced impairment in working memory; also recorded: significant pro-cognitive effect”. Also, the “sensorimotor impairment on rotarod” value in data set [2] is given as “no sensorimotor impairment”. Further, the “HEK293 LD50” value with HEK293 was more than 200 µM. The “HEPG2 LD50” value in the data set on HEPG2 is more than 400 µM.
As to `C#Cc1ccc2c(c1)C(c1ccccc1F)=N[C@@H](C)c1c(C(=O)N(C)C)ncn1-2` [GL-I-54, (S)-8-ethynyl-6-(2-fluorophenyl)-N,N,4-trimethyl-4H-benzo[f]imidazo[1,5-a][1,4]diazepine-3-carboxamide], in data set [2], the “sensorimotor impairment on rotarod” value is listed as “most severe motor impairment”. Also, in the data set on HEK293, the “HEK293 LD50” value was more than 400 µM. Also, the “HEPG2 LD50” value in the data set with HEPG2 is more than 400 µM.

Source of the values: patent US10906909B2, “Treatment of cognitive and mood symptoms in neurodegenerative and neuropsychiatric disorders with ALPHA5-containing GABAA receptor agonists” (UWM Research Foundation, Inc., priority 2016, dated 2021).
